Earlier results as cited in patent US20030232417A1, “Process” (priority 2001, published 2003).

Tested on: fungi
Conditions: limited number of fungi tested

O=C1C=CCOC1(O)CO (stereo not shown) [microthecin, 2-hydroxy-2-(hydroxymethyl)-2H-pyran-3(6H)-one]
antifungal activity: antifungal against a limited number of fungi tested
